pIC50: −log10 of the molar value.
Experiments:
Plasmodium falciparum = experiment: Antiparasitic activity against Plasmodium falciparum K1 […] assessed as inhibition of parasite growth preincubated for 48 hrs before [3H]hypoxanthine addition measured after 24 hrs by [3H]hypoxanthine incorporation assay; type: functional, organism-based
Trypanosoma cruzi = experiment: Antiparasitic activity against trypomastigotes of Trypanosoma cruzi Tulahuen C2C4 expressing LacZ gene infected in rat L6 cells after 96 hrs; type: functional, organism-based; conditions: Tulahuen C2C4, L6, 96 h
Leishmania donovani = experiment: Antiparasitic activity against amastigotes of Leishmania donovani MHOM/ET/67/L82 […] after 72 hrs by Alamar blue assay; type: functional, organism-based; conditions: MHOM/ET/67/L82, 72 h
L6 = experiment: Cytotoxicity against rat L6 cells after 72 hrs by Alamar blue assay; type: cell-based; conditions: L6, 72 h
[1] = Selectivity index, ratio of IC50 for rat L6 cells to IC50 for Leishmania donovani MHOM/ET/67/L82 amastigotes; type: toxicity, cell-based; conditions: read-out: Ratio IC50
[2] = test system: Trypanosoma brucei rhodesiense; experiment: Antiparasitic activity against bloodstream form of Trypanosoma brucei rhodesiense STIB 900 […] after 72 hrs by Alamar blue assay; type: functional, organism-based; conditions: STIB 900, 72 h
[3] = Selectivity index, ratio of IC50 for rat L6 cells to IC50 for bloodstream form of Trypanosoma brucei rhodesiense STIB 900; type: toxicity, cell-based; conditions: read-out: Ratio IC50
[4] = Selectivity index, ratio of IC50 for rat L6 cells to IC50 for Plasmodium falciparum K1; type: toxicity, cell-based; conditions: read-out: Ratio IC50
[5] = Selectivity index, ratio of IC50 for rat L6 cells to IC50 for Trypanosoma cruzi Tulahuen C2C4 trypomastigotes; type: toxicity, cell-based; conditions: read-out: Ratio IC50

SMILES	pIC50 (Plasmodium falciparum)	pIC50 (Trypanosoma cruzi)	pIC50 (Leishmania donovani)	pIC50 (L6)	selectivity ratio [1]	pIC50 [2]	selectivity ratio [3]	selectivity ratio [4]	selectivity ratio [5]
CCCC(=O)c1ccc2c(c1)/C(=C1\C(=O)N([C@@H]3O[C@H](COC(C)=O)[C@@H](OC(C)=O)[C@H](OC(C)=O)[C@H]3OC(C)=O)c3ccc(Br)cc31)C(=O)N2	5.61	< 3.92	5.44	4.00	27.5	6.29	194	39.9	–
CCN(CC)CCCC(C)Nc1ccnc2cc(Cl)ccc12 (stereo unspecified) [CHLOROQUINE]	–	–	–	–	–	–	–	327	–
O=C(Cn1ccnc1[N+](=O)[O-])NCc1ccccc1 [BENZNIDAZOLE]	–	5.59	–	–	–	–	–	–	> 135
Nc1nc(N)nc(Nc2ccc([As]3SCC(CO)S3)cc2)n1 (stereo unspecified) [MELARSOPROL]	–	–	–	–	–	7.89	193	–	–
CC(=O)OC[C@H]1O[C@@H](N2C(=O)/C(=C3/C(=O)Nc4ccccc43)c3ccccc32)[C@H](OC(C)=O)[C@@H](OC(C)=O)[C@@H]1OC(C)=O	< 5.10	4.95	5.71	5.34	–	5.91	–	–	–
CC(=O)OC[C@H]1O[C@@H](N2C(=O)/C(=C3/C(=O)Nc4ccc(OC(F)(F)F)cc43)c3ccccc32)[C@H](OC(C)=O)[C@@H](OC(C)=O)[C@@H]1OC(C)=O	< 5.15	< 3.89	4.95	3.91	–	6.22	206	–	–
CCCCCCCCCCCCCCCCOP(=O)([O-])OCC[N+](C)(C)C [MILTEFOSINE]	–	–	6.43	–	265	–	–	–	–
CC(=O)OC[C@H]1O[C@@H](N2C(=O)/C(=C3/C(=O)Nc4ncccc43)c3cc(Br)ccc32)[C@H](OC(C)=O)[C@@H](OC(C)=O)[C@@H]1OC(C)=O	< 5.15	4.71	6.08	5.00	–	6.06	–	–	–

From ChEMBL document CHEMBL1909597, “Biological evaluation of glycosyl-isoindigo derivatives against the pathogenic agents of tropical diseases (malaria, Chagas disease, leishmaniasis and human African trypanosomiasis)” (Bioorg Med Chem Lett, 2011)
